Results published in patent US8497277B2, “Inhibitors of Bruton's tyrosine kinase” (Pharmacyclics, Inc., priority 2006, dated 2013).
Blank lines part the entries; values can stand above or below the molecule they belong to.

Columns and labels:
Btk = Btk (Homo sapiens (Human), UniProt Q06187); test: Btk acellular kinase assay (TR-FRET); details: Btk IC50 relative to compound 4
in vivo = details: female, Balb/c, mouse, plasma, po
DHL-6 cells = test: DHL-6 cell growth (Alamar Blue assay); type: cell-based; details: 3E4 DHL-6 cells/well in complete media, 0.1% DMSO

Btk, sequence (Q06187 whole entry): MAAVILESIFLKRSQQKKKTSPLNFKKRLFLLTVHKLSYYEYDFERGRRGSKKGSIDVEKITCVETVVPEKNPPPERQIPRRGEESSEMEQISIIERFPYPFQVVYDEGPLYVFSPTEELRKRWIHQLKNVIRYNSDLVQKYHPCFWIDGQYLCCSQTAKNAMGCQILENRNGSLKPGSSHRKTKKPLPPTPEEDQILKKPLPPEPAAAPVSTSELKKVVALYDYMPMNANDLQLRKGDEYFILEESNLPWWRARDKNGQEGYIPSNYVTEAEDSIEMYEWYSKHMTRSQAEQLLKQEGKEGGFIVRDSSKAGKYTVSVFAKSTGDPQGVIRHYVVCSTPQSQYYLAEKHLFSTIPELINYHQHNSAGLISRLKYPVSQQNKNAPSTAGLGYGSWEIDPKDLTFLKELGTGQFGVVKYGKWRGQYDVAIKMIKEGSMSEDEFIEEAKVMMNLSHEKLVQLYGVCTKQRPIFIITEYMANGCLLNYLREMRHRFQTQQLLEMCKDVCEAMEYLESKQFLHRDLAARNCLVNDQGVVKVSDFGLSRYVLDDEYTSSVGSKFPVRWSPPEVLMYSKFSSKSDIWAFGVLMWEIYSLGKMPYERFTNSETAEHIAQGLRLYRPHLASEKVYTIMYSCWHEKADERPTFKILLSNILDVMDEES

- fold less potent than 4 (Btk): 28 fold
SMILES: C/C=C/C(=O)N1CCCC(n2nc(-c3ccc(Oc4ccccc4)cc3)c3c(N)ncnc32)C1 (stereo not drawn) [Compound 5, (E)-1-(3-(4-amino-3-(4-phenoxyphenyl)-1H-pyrazolo[3,4-d]pyrimidin-1-yl)piperidin-1-yl)but-2-en-1-one]

- Tmax (in vivo): 2 h
SMILES: C=CC(=O)N1CCCC(n2nc(-c3ccc(Oc4ccccc4)cc3)c3c(N)ncnc32)C1 (stereo not drawn) [Compound 4, 1-(3-(4-amino-3-(4-phenoxyphenyl)-1H-pyrazolo[3,4-d]pyrimidin-1-yl)piperidin-1-yl)prop-2-en-1-one]

SMILES: CN(C)C/C=C/C(=O)N1CCCC(n2nc(-c3ccc(Oc4ccccc4)cc3)c3c(N)ncnc32)C1 (stereo not drawn) [Compound 15, (E)-1-(3-(4-amino-3-(4-phenoxyphenyl)-1H-pyrazolo[3,4-d]pyrimidin-1-yl)piperidin-1-yl)-4-(dimethylamino)but-2-en-1-one]
- growth of DHL-6 cells (DHL-6 cells): inhibit growth
